Patent US20100048950A1 (BOEHRINGER INGELHEIM INTERNATIONAL GMBH, priority 2007, published 2010)
pIC50: −log10 of the molar value.

molecular target: T1, human glucocorticoid receptor (GR) complex (Homo sapiens, UniProt P04150); experiment: Glucocorticoid receptor competitive binding assay (fluorescence polarization); conditions: competition with TAMRA-labeled dexamethasone, read-out: potent activity (IC50) in the GR binding assay
T1 construct: made in house; host or cells: insect expression system (baculovirus lysate)
T1 sequence (P04150 1-777): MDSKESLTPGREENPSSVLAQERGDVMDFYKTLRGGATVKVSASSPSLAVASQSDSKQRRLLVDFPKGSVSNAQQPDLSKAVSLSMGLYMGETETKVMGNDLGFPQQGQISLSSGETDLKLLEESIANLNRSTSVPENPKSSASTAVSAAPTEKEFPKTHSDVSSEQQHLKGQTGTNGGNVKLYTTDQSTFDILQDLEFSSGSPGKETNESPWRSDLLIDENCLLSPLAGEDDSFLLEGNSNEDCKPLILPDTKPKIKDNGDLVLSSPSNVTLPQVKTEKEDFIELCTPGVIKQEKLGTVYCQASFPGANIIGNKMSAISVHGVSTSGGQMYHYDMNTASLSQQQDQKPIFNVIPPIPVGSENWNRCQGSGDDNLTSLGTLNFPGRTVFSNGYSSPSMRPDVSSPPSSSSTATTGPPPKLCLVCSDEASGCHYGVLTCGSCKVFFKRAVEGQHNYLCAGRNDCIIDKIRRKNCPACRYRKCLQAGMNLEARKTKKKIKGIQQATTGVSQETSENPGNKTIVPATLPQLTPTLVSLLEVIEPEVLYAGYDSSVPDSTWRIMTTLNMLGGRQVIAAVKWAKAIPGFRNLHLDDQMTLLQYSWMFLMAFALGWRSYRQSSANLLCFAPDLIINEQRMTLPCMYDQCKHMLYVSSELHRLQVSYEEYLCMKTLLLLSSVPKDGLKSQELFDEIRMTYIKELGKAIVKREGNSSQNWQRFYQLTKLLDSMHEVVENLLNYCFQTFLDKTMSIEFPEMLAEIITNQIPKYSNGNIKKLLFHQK
In short: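 Human GR complex in baculovirus insect-cell lysate (1:170) competed against 15 nM TAMRA-dexamethasone stock for 1 h at room temperature. Buffer: TES/KCl/molybdate/EDTA/CHAPS/glycerol/DTT, pH 7.4, 1% DMSO final. FP read at 550/580 nm; IC50 from 4-parameter logistic fit.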

Row | Structure (SMILES) | pIC50
1 | COc1ccccc1SCC(NS(=O)(=O)c1c(C)cc(C)cc1C)C(F)(F)F (stereo not drawn) [2,4,6-Trimethyl-N-[2,2,2-trifluoro-1-(2-methoxyphenylsulfanylmethyl)ethyl]benzenesulfonamide] | ≥ 7.00
2 | Cc1cc(C)c(S(=O)(=O)NC(COc2ccc(C)cc2Cl)C(F)(F)F)c(C)c1 (stereo not drawn) [N-[1-(2-Chloro-4-methylphenoxymethyl)-2,2,2-trifluoroethyl]-2,4,6-trimethylbenzenesulfonamide] | ≥ 7.00
3 | Cc1cc(C)c(S(=O)(=O)NC(COc2ccc(Cl)cc2F)C(F)(F)F)c(C)c1 (stereo not drawn) [N-[1-(4-Chloro-2-fluorophenoxymethyl)-2,2,2-trifluoroethyl]-2,4,6-trimethylbenzenesulfonamide] | ≥ 7.00
4 | Cc1cccc(NCC(NS(=O)(=O)c2c(C)cc(C)cc2C)C(F)(F)F)c1 (stereo not drawn) [2,4,6-Trimethyl-N-[2,2,2-trifluoro-1-(m-tolylaminomethyl)ethyl]benzenesulfonamide] | ≥ 7.00
5 | Cc1cc(C)c(S(=O)(=O)NC(CNc2cccc(C)c2C#N)C(F)(F)F)c(C)c1 (stereo not drawn) [N-{1-[(2-Cyano-3-methylphenylamino)methyl]-2,2,2-trifluoroethyl}-2,4,6-trimethylbenzenesulfonamide] | ≥ 7.00
6 | Cc1cc(C)c(S(=O)(=O)NC(CNc2cccc(Cl)c2C#N)C(F)(F)F)c(C)c1 (stereo not drawn) [N-{1-[(3-Chloro-2-cyanophenylamino)methyl]-2,2,2-trifluoroethyl}-2,4,6-trimethylbenzenesulfonamide] | ≥ 7.00
7 | Cc1cc(C)c(S(=O)(=O)NC(CNc2ccc(C#N)c(Cl)c2)C(F)(F)F)c(C)c1 (stereo not drawn) [N-{1-[(3-Chloro-4-cyanophenylamino)methyl]-2,2,2-trifluoroethyl}-2,4,6-trimethylbenzenesulfonamide] | ≥ 7.00
8 | Cc1cc(C)cc(SCC(NS(=O)(=O)c2c(C)cc(C)cc2C)C(F)(F)F)c1 (stereo not drawn) [N-[1-(3,5-Dimethylphenylsulfanylmethyl)-2,2,2-trifluoroethyl]-2,4,6-trimethylbenzenesulfonamide] | ≥ 7.00
9 | Cc1cc(C)c(S(=O)(=O)NC(COc2ccc(C)c(Cl)c2)C(F)(F)F)c(C)c1 (stereo not drawn) [N-[1-(3-Chloro-4-methylphenoxymethyl)-2,2,2-trifluoroethyl]-2,4,6-trimethylbenzenesulfonamide] | ≥ 7.00
10 | CCN(CC(NS(=O)(=O)c1c(C)cc(C)cc1C)C(F)(F)F)c1cccc(C)c1 (stereo not drawn) [N-{1-[(Ethyl-m-tolylamino)methyl]-2,2,2-trifluoroethyl}-2,4,6-trimethylbenzenesulfonamide] | ≥ 7.00
11 | Cc1cc(C)c(S(=O)(=O)NC(COc2cccc(Br)c2)C(F)(F)F)c(C)c1 (stereo not drawn) [N-[1-(3-Bromophenoxymethyl)-2,2,2-trifluoroethyl]-2,4,6-trimethylbenzenesulfonamide] | ≥ 7.00
12 | Cc1cc(C)c(S(=O)(=O)NC(CSc2cc(C)ccc2C)C(F)(F)F)c(C)c1 (stereo not drawn) [N-[1-(2,5-Dimethylphenylsulfanylmethyl)-2,2,2-trifluoroethyl]-2,4,6-trimethylbenzenesulfonamide] | ≥ 7.00
13 | Cc1cc(C)c(S(=O)(=O)NC(CNc2cccc3c2CCCC3)C(F)(F)F)c(C)c1 (stereo not drawn) [2,4,6-Trimethyl-N-{2,2,2-trifluoro-1-[(5,6,7,8-tetrahydronaphthalen-1-ylamino)methyl]ethyl}benzenesulfonamide] | ≥ 7.00
14 | Cc1cc(C)c(S(=O)(=O)NC(CSc2cccc(OC(F)(F)F)c2)C(F)(F)F)c(C)c1 (stereo not drawn) [2,4,6-Trimethyl-N-[2,2,2-trifluoro-1-(3-trifluoromethoxyphenylsulfanylmethyl)ethyl]benzenesulfonamide] | ≥ 7.00
15 | COc1ccc(C(F)(F)F)cc1NCC(NS(=O)(=O)c1c(C)cc(C)cc1C)C(F)(F)F (stereo not drawn) [2,4,6-Trimethyl-N-{2,2,2-trifluoro-1-[(2-methoxy-5-trifluoromethylphenylamino)methyl]ethyl}benzenesulfonamide] | ≥ 7.00
16 | Cc1cc(C)c(S(=O)(=O)NC(CSc2ccc(Br)cc2OC(F)(F)F)C(F)(F)F)c(C)c1 (stereo not drawn) [N-[1-(4-Bromo-2-trifluoromethoxyphenylsulfanylmethyl)-2,2,2-trifluoroethyl]-2,4,6-trimethylbenzenesulfonamide] | ≥ 7.00
17 | Cc1cc(C)c(S(=O)(=O)NC(COc2cc(Cl)cc(Cl)c2)C(F)(F)F)c(C)c1 (stereo not drawn) [N-[1-(3,5-Dichlorophenoxymethyl)-2,2,2-trifluoroethyl]-2,4,6-trimethylbenzenesulfonamide] | ≥ 7.00
18 | CCOC(=O)c1ccc(OCC(NS(=O)(=O)c2c(C)cc(C)cc2C)C(F)(F)F)c(OC)c1 (stereo not drawn) [3-Methoxy-4-[3,3,3-trifluoro-2-(2,4,6-trimethylbenzenesulfonylamino)propoxy]benzoic acid ethyl ester] | ≥ 7.00

The remaining lines, values ahead:

Row | pIC50 | Structure (SMILES)
19 | ≥ 7.00 | Cc1cc(C)c(S(=O)(=O)NC(COc2ccc(Br)cc2C)C(F)(F)F)c(C)c1 (stereo not drawn) [N-[1-(4-Bromo-2-methylphenoxymethyl)-2,2,2-trifluoroethyl]-2,4,6-trimethylbenzenesulfonamide]
20 | ≥ 7.00 | Cc1cc(C)c(S(=O)(=O)NC(CNc2cc(C(F)(F)F)ccc2Cl)C(F)(F)F)c(C)c1 (stereo not drawn) [N-{1-[(2-Chloro-5-trifluoromethylphenylamino)methyl]-2,2,2-trifluoroethyl}-2,4,6-trimethylbenzenesulfonamide]
21 | ≥ 7.00 | Cc1cc(C)c(S(=O)(=O)NC(COc2cccc(C(F)(F)F)c2)C(F)(F)F)c(C)c1 (stereo not drawn) [2,4,6-Trimethyl-N-[2,2,2-trifluoro-1-(3-trifluoromethylphenoxymethyl)ethyl]benzenesulfonamide]
22 | ≥ 7.00 | Cc1cc(C)c(S(=O)(=O)NC(COc2ccccc2C)C(F)(F)F)c(C)c1 (stereo not drawn) [2,4,6-Trimethyl-N-(2,2,2-trifluoro-1-o-tolyloxymethylethyl)benzenesulfonamide]
23 | ≥ 7.00 | CCC(CSc1ccccc1)NS(=O)(=O)c1c(C)cc(C)cc1C (stereo not drawn) [2,4,6-Trimethyl-N-(1-phenylsulfanylmethylpropyl)benzenesulfonamide]
24 | ≥ 7.00 | Cc1cc(C)c(S(=O)(=O)NC(COc2ccc3c(c2)CCC3)C(F)(F)F)c(C)c1 (stereo not drawn) [2,4,6-Trimethyl-N-[2,2,2-trifluoro-1-(indan-5-yloxymethyl)ethyl]benzenesulfonamide]
25 | ≥ 7.00 | Cc1cc(C)c(S(=O)(=O)NC(CNc2ccc(Cl)cc2C#N)C(F)(F)F)c(C)c1 (stereo not drawn) [N-{1-[(4-Chloro-2-cyanophenylamino)methyl]-2,2,2-trifluoroethyl}-2,4,6-trimethylbenzenesulfonamide]
26 | ≥ 7.00 | Cc1cc(C)c(S(=O)(=O)NC(CNc2ccc(C#N)cc2)C(F)(F)F)c(C)c1 (stereo not drawn) [N-{1-[(4-Cyanophenylamino)methyl]-2,2,2-trifluoroethyl}-2,4,6-trimethylbenzenesulfonamide]
27 | ≥ 7.00 | Cc1cc(C)cc(NCC(NS(=O)(=O)c2c(C)cc(C)cc2C)C(C)C)c1 (stereo not drawn) [N-{1-[(3,5-Dimethylphenylamino)methyl]-2-methylpropyl}-2,4,6-trimethylbenzenesulfonamide]
28 | ≥ 7.00 | Cc1ccc(SCC(NS(=O)(=O)c2c(N)cc(Cl)cc2Cl)C(F)(F)F)cc1 (stereo not drawn) [2-Amino-4,6-dichloro-N-(2,2,2-trifluoro-1-p-tolylsulfanylmethylethyl)benzenesulfonamide]
29 | ≥ 7.00 | Cc1cc(C)c(S(=O)(=O)NC(COc2ccc(C#N)c(Cl)c2)C(F)(F)F)c(C)c1 (stereo not drawn) [N-[1-(3-Chloro-4-cyanophenoxymethyl)-2,2,2-trifluoroethyl]-2,4,6-trimethylbenzenesulfonamide]
30 | ≥ 7.00 | Cc1cc(C)c(S(=O)(=O)NC(COc2cc(C)c(C#N)c(C)c2)C(F)(F)F)c(C)c1 (stereo not drawn) [N-[1-(4-Cyano-3,5-dimethylphenoxymethyl)-2,2,2-trifluoroethyl]-2,4,6-trimethylbenzenesulfonamide]
31 | ≥ 7.00 | Cc1cc(C)c(S(=O)(=O)NC(CSc2ccc(F)cc2Cl)C(F)(F)F)c(C)c1 (stereo not drawn) [N-[1-(2-Chloro-4-fluorophenylsulfanylmethyl)-2,2,2-trifluoroethyl]-2,4,6-trimethylbenzenesulfonamide]
32 | ≥ 7.00 | Cc1cc(C)c(S(=O)(=O)NC(COc2cccc3ccccc23)C(F)(F)F)c(C)c1 (stereo not drawn) [2,4,6-Trimethyl-N-[2,2,2-trifluoro-1-(naphthalen-1-yloxymethyl)ethyl]benzenesulfonamide]
33 | ≥ 7.00 | Cc1cc(C)c(S(=O)(=O)NC(CNc2cccc(-c3cnco3)c2)C(F)(F)F)c(C)c1 (stereo not drawn) [2,4,6-Trimethyl-N-{2,2,2-trifluoro-1-[(3-oxazol-5-ylphenylamino)methyl]ethyl}benzenesulfonamide]
